Laboratory results as given in PMC8574161 (Journal of chemical information and modeling, 2021).
pEC50, pIC50, pKd: −log10 of the molar value. “And” between values parts separate entries of the source, which are not always exact repeats. Identical values can stand only once. Counter-ions that a name gives are not always drawn. Like-named read-outs stand apart in the source and are kept apart here.

How the values were obtained:
SARS-CoV-2 [1] = settings: Calu-3 cells; cited from earlier work
in vitro = settings: human
[2] = target: SARS-CoV-2 Spike RBD protein (Severe acute respiratory syndrome coronavirus 2, UniProt P0DTC2); assay: Microscale thermophoresis binding to Spike RBD; settings: MST, 5 nM labeled Spike RBD, 23°C, quadruplicate
SARS-CoV-2 [3] = assay: microbe, parasite or virus in culture
[4] = Vero 76 cytotoxicity in uninfected toxicity cultures; settings: African green monkey, CC50, Vero 76
SARS-CoV-2 [5] = settings: Vero E6 cells; cited from earlier work
Calu3 toxicity = type: cell-based; settings: human, Calu3 cells infected with SARS-CoV-2
[6] = system: SARS-CoV-2 (isolate USA WA1/2020); assay: microbe, parasite or virus in culture; type: cell-based; settings: Severe acute respiratory syndrome coronavirus 2, Calu-3, 48 h
SARS-CoV-2 [7] = assay: Vero 76 reduction of virus-induced cytopathic effect; type: cell-based; settings: Severe acute respiratory syndrome coronavirus 2, Vero 76, Vero 76
SARS-CoV-2 [8] = settings: compared with CC50
SARS-CoV-2 [9] = settings: Vero cells; cited from earlier work
[10] = Severe acute respiratory syndrome coronavirus 2, Caco-2, 72 h
[11] = Neutral Red (Cytopathic effect/Toxicity)
[12] = Visual (Cytopathic effect/Toxicity)

In the case of C[C@H]1[C@H](OC(=O)CCC(=O)O)O[C@@H]2O[C@@]3(C)CC[C@H]4[C@H](C)CC[C@@H]1[C@@]24OO3 [Artesunate], the pIC50 (SARS-CoV-2 [1]) is given as 5.75.
With CCCCN(CCCC)CC(O)c1cc(Cl)cc2c1-c1ccc(Cl)cc1/C2=C/c1ccc(Cl)cc1 (centres unmarked) [Lumefantrine] the CC50 at 3 days (in vitro) was 10 µM, the pKd [2] was 6.59 and ~6.60 and the EC90 (SARS-CoV-2 [3]; [10]) was 10 µM. The CC50 [4, 11] was 177 µM, the CC50 [4, 12] was over 60 µM and the pEC50 (SARS-CoV-2 [5]) was 4.64. The CC50 at 48 h (Calu3 toxicity) was over 20 µM, the pIC50 [6] was under 4.70 and the pEC50 (SARS-CoV-2 [7]; [11]) was 4.27. The pEC50 (SARS-CoV-2 [7]; [12]) was under 4.22.
For CCCC1O[C@@H]2C[C@H]3[C@@H]4CCC5=CC(=O)C=C[C@]5(C)[C@H]4[C@@H](O)C[C@]3(C)[C@]2(C(=O)CO)O1 (some centres unmarked) [Budesonide], the CC50 at 3 days (in vitro) was 10 µM, the EC90 (SARS-CoV-2 [3]; [10]) was over 10 µM and the “activity against SARS-CoV-2 in Caco-2 cells (in words)” value (SARS-CoV-2 [8]) was “no activity”.
In the case of COc1cc2c(cc1OC)C1CC(=O)C(CC(C)C)CN1CC2 (centres unmarked) [Tetrabenazine], the CC50 at 3 days (in vitro) was over 100 µM, the EC90 (SARS-CoV-2 [3]; Severe acute respiratory syndrome coronavirus 2, Caco-2) was over 100 µM and the “activity against SARS-CoV-2 in Caco-2 cells (in words)” value (SARS-CoV-2 [8]) was “inactive”.
In the case of C=C[C@]1(C)C[C@@H](OC(=O)CSCCN(CC)CC)[C@]2(C)[C@H](C)CC[C@]3(CCC(=O)[C@H]32)[C@@H](C)[C@@H]1O [Tiamulin fumarate], the CC50 at 3 days (in vitro) was over 100 µM and the EC90 (SARS-CoV-2 [3]; [10]) was 65 µM.
In the case of Cc1cn(-c2cc(NC(=O)c3ccc(C)c(Nc4nccc(-c5cccnc5)n4)c3)cc(C(F)(F)F)c2)cn1 [Nilotinib], the potency (SARS-CoV-2 [9]) is given as “sub-micromolar”.
